Series [1] relates to control MCF7 cells. Description: CellTiter-Glo cell viability assay, control MCF7. The note with it: 72 h. The format is cell-based, human. The procedure:
Selected hit compounds were tested in CellTiterGlo cell viability assays to determine their cytotoxic effect on IQGAP1 knockout and control MCF7 cells. Prior to the assay, we assessed cell proliferation to keep both cell lines at similar exponential growth rates within 80 h after plating. For this purpose, the cells were plated onto 384-well clear bottom black plates (Perkin Elmer, Ultra) at various cell densities (between 625 and 10,000 cells/50µL/well), spun down for 15 s, and placed into Incucyte SX5 (Essen BioScience) for automated bright-field channel reading every 4 h. […] For the cytotoxicity assays, cells were harvested with 0.05% trypsin, spun down at 125xg for 5 min, re-suspended in fresh DMEM supplemented with 5% (v/v) FBS, and seeded into 1536-well white solid bottom tissue culture-treated plates (Greiner One, #789173-F) at 600 cells/5µL/well for knockout cells and 300 cells/5µL/well for control cells using a Multidrop Combi dispenser (Thermo Fisher Scientific Inc.). One column on each plate was dispensed with growth medium only (no cells) to gauge the maximal potential cytotoxic effect (IC100 control). The plates were kept in a tissue culture incubator at 37 °C with 5% CO2 for ~ 20 h for attachment and recovery of the cells. The next day, selected compounds were pin-transferred into the wells in columns 5–48, 23nL/well at 7-point 1:3 serial dilution, in the range of 46 µM to 78 nM final assay concentration. DMSO was used as the vehicle control (IC0). The plates were covered with stainless steel cell culture Kalypsys lids and incubated at 37 °C with 5% CO2 under 95% humidity for 72 h.
Plates and reagents were equilibrated to room temperature and then 5 µL/well of CellTiter Glo (Promega, #G7570) reagent was dispensed with a Multidrop Combi dispenser to the assay plates. After incubation for 10 min at ambient temperature, the luminescence signal was read with a ViewLux instrument (Perkin Elmer) with one second exposure. Relative luminescent units (RLU) for each well were normalized to the median RLUs from DMSO control wells as […] and “no cells” control wells as 100% viability.
(ATP-based viability assays read luminescence as a measure of living cells.)

In series [2] the test system is MCF7 cells. As to the kind of experiment: IncuCyte proliferation assay, MCF7. The format is cell-based, human. The following applies: 72 h; for effect on proliferation: up to 50 µM. How it is done:
(§1) MDA-MB-231 and MCF7 cells were grown to confluence, detached using trypsin–EDTA cell dissociation buffer (Gibco 12604013) and counted. Cells were plated into 384-well, clear-bottom, black, tissue culture treated plates (Corning 3683) using an automatic dispenser (Thermo Multidrop Combi SMART) at densities of 2000 cells/10 µL/well for MDA-MB-231 cells and 4000 cells/10 µL/well for MCF7 cells in DMEM supplemented with 5% FBS. After 4 h incubation at 37 °C with 5% CO2, the growth medium was replaced with 10 µL medium containing compounds at 16-point 1:2 serial dilutions with the final highest concentration of 50 µM for each compound. All samples containing compounds were plated in triplicate. Cells in the first column of the plate were treated with 0.5% DMSO as control. The plates were placed into an Incucyte SX5 Live-cell imaging system (Sartorius) and phase images were taken at 6-h intervals for 72 h with 10X objective lens. The growth medium containing compounds or DMSO was replenished after 24 h. The images were analyzed, and the growth curves generated by the Incucyte software 2020A using the basic analyzer mode.

Series [3] deals with MDA-MB-231 cells. Description: IncuCyte proliferation assay, MDA-MB-231. The format is cell-based, human. The following applies: 72 h; for effect on proliferation: up to 50 µM. The procedure: as §1
Series [4] deals with T1, endogenous IQGAP1/Cdc42 interaction (Homo sapiens, UniProt P46940+P60953).
T1 construct: endogenous in cells; host or cells: HEK293 cell lysate
Description: Immunoprecipitation of endogenous IQGAP1 and co-precipitated Cdc42 in HEK293 cell lysates. The note with it: DMSO = 100% binding. The format is binding. How it is done:
Each compound was added to lysates from HEK293 cells at a final concentration of 50 µM and endogenous IQGAP1 was immunoprecipitated. DMSO alone was used as the negative control (100% binding).
HEK293 cells were plated in 10-cm dishes to reach 80% confluence. The following day, the cells were washed with ice-cold phosphate-buffered saline (PBS) and lysed with 500 µl of Buffer A (50 mM Tris–HCl, pH 7.4, 150 mM NaCl, and 1% Triton X-100) supplemented with complete protease and phosphatase inhibitors (Roche, Mannheim, Germany). Lysates were subjected to two rounds of sonication for 10 s each, and insoluble material was precipitated by centrifugation at 13,000 xg for 10 min at 4 °C. Supernatants were precleared with protein A-Sepharose beads for 1 h. DMSO (vehicle) or different concentrations of the compounds (0.2, 0.6, 1, 5, 16 or 50 µM) were added to equal amounts of protein lysates for 30 min. Protein A-Sepharose beads and anti-IQGAP1 polyclonal antibodies were then added for 2 h at 4 °C. Anti-rabbit IgG antibodies were used as the immunoprecipitation control. Samples were washed five times with Buffer A, resolved by SDS-PAGE and transferred to polyvinylidene fluoride (PVDF) membranes (Millipore Corp). Membranes were probed with anti-IQGAP1 and anti-Cdc42 antibodies. After secondary antibody detection, Western blots were imaged using a LI-COR Odyssey infrared imaging system (LI-COR, USA). Western blot quantification and analysis was conducted using Image Studio™ Lite (LI-COR Biosciences).

Series [5] has as its system active (GTP-bound) Cdc42 in MDA-MB-231 cells. Description: Assay of active Cdc42 (GST-WASP-GBD pulldown). The note with it: 50 µM for 2 h, 100 ng/mL EGF 10 min. In kind it is cell-based, human. How it is done:
The GST-WASP-GBD (GTPase-binding-domain) has been described previously. Briefly, GST-WASP-GBD was generated by polymerase chain reaction, digested, and ligated into a pGEX-KG vector[52]. Following expression of the GST fusion protein in E. coli, purification was performed by glutathione-Sepharose affinity chromatography. MDA-MB-231 cells were grown in DMEM with 10% FBS to 60% confluence. After 2 h, 100 ng/mL EGF or vehicle was added for 10 min. After washing with 1xPBS, cells were lysed in lysis buffer (20 mM Hepes, pH 7.4, 150 mM NaCl, 1% NP-40, 20 mM NaF, and 20uM GTP, containing halt protease & phosphatase inhibitor cocktail (Thermo Scientific #1,861,281). Lysates were precleared with glutathione-Sepharose for 1 h at 4 °C and equal amounts of protein was incubated with either GST (control) or GST-WASP-GBD for 2 h at 4 °C. Complexes were collected with glutathione-Sepharose and washed 5× with lysis buffer. Bound proteins were resolved by SDS-PAGE and transferred to a polyvinylidene difluoride membrane. The membrane was cut immediately below the 37 kDa molecular weight marker. The top portion of the membrane was discarded and the bottom portion was probed with anti-Cdc42 antibody (BD Transduction Laboratories #610929). Aliquots of whole cell lysate were processed in parallel. […] The intensities of the Cdc42 and tubulin bands were quantified using Image Studio (LI-COR Biosciences).

The structures appear in SMILES notation.

T1 sequence (P46940 2-1657 limits assumed): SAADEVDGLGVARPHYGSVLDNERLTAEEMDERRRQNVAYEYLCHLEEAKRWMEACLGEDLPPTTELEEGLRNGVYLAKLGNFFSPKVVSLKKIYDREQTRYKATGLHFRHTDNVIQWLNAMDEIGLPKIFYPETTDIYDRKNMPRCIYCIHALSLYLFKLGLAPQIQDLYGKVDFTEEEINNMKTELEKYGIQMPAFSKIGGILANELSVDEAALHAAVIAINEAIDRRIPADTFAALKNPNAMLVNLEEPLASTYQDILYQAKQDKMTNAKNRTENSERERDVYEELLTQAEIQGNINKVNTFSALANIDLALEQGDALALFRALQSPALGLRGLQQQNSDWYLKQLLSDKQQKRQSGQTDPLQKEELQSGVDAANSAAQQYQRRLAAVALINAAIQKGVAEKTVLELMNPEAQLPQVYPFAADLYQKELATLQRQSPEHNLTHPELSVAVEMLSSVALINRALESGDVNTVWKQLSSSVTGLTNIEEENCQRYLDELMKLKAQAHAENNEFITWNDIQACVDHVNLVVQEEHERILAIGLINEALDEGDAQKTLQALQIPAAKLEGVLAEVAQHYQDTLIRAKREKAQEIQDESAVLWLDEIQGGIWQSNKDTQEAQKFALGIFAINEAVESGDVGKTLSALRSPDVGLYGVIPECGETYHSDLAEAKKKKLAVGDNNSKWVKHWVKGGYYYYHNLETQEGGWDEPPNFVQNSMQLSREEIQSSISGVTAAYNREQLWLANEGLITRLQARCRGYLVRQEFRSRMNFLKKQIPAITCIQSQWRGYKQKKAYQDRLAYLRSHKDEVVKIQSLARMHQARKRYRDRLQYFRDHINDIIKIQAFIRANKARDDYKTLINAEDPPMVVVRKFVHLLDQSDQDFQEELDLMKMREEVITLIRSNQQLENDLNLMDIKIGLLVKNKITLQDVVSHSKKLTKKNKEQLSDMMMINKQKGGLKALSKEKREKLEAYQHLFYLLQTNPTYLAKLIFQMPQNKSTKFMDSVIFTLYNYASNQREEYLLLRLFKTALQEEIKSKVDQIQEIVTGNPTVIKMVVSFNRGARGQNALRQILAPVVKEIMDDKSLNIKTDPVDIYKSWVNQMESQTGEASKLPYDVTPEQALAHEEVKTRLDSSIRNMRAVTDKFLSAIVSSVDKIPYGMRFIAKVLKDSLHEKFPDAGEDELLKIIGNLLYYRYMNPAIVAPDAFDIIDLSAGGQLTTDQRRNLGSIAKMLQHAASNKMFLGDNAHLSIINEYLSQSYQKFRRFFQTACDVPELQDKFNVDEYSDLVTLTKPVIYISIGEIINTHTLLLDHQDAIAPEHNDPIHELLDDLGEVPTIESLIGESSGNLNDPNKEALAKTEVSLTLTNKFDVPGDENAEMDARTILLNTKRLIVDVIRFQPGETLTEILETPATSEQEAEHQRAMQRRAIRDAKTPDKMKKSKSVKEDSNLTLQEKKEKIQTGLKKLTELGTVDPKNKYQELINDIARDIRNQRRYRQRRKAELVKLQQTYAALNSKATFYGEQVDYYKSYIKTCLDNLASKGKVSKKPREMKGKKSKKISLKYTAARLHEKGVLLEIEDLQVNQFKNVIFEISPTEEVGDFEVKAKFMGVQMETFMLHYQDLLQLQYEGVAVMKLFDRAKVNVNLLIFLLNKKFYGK
T1 sequence (P60953 1-188 limits assumed): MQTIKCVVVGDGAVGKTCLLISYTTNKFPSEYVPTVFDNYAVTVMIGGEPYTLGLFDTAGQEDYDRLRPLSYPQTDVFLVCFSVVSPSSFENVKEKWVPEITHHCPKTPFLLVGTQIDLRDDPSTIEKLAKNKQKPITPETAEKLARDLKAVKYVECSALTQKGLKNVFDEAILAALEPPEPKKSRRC

For `Cc1cccc(NC(=O)c2c(NC(=O)C(F)(F)F)sc3c2CCCCC3)c1` [NCGC00098561], the IC50 in series [1] (Homo sapiens, read-out: cytotoxicity EC50) was 2.24 µM. Moreover, in series [1] (Homo sapiens, read-out: cytotoxicity efficacy), the Emax is roughly 100%.

A word on the EC50: it is the concentration that produces a half-maximal response. On to `CCN(CC)CCn1c2ccccc2c2nc3ccc([N+](=O)[O-])cc3cc21` [MLS000332963], for which the cytotoxicity efficacy in series [1] came out at 47%. In addition, the EC50 in series [1] (read-out: cytotoxicity EC50) was 19.9 µM; in series [2] (confluency), 6.54 µM; in series [3] (confluency), 3.01 µM. For the same compound, the “effect on proliferation” value in series [2] and in series [3] was “dose-dependent inhibitory effect” each time.

Take `CCc1ccccc1Nc1ncnc2c1cnn2-c1ccc(Cl)cc1` [NCGC00138812]: the “reduction of interaction between endogenous IQGAP1 and Cdc42 (mean)” value in series [4] (0.2 µM (Fig. 3b)) is on record as 47%. The “effect on proliferation” value in series [2] and in series [3] was “dose-dependent inhibitory effect” throughout. Besides, in series [5], the “effect on EGF-induced active (GTP-) Cdc42” value is given as “did not appreciably reduce activation of Cdc42 by EGF”.

Regarding `CCN1CCN(c2ncc3c(n2)CCN(Cc2cc(Br)cs2)C3)CC1` [NCGC00131308], in series [4] (16 µM (Fig. 3b)), the “reduction of interaction between endogenous IQGAP1 and Cdc42 (mean)” value came to 60%. Moreover, the “effect on proliferation” value in series [2] and in series [3] was “dose-dependent inhibitory effect” throughout. In addition, the “effect on EGF-induced active (GTP-) Cdc42” value in series [5] is “abrogated the increase in GTP-Cdc42 induced by EGF”.

The record behind these values is PMC9576799, “Discovery of small molecule inhibitors that effectively disrupt IQGAP1-Cdc42 interaction in breast cancer cells” (Scientific Reports, 2022).
